Measured values taken from patent US20240309015A1, “Methods for the Treatment of Fibrotic Disease” (SHY Therapeutics, LLC, priority 2021, published 2024).

Experiments:
[1] = system: IL-6; assay: Mouse IL6 Quantification Assay (LPS-stimulated RAW 264.7); assay type: cell-based; set-up: dose or concentration left out as unconfirmed; conditions: RAW264.7, ELISA, read-out: IL-6: % inh.
[2] = system: TNFα; assay: Mouse TNF Alpha Quantification Assay (LPS-stimulated RAW 264.7); assay type: cell-based; set-up: dose or concentration left out as unconfirmed; conditions: RAW264.7, ELISA, read-out: TNFα: % inh.
[3] = system: KRas wild type; assay: Ras GTP Binding Domain Inhibition Assay, KRas wild type; conditions: at 20 μM; for KRas wild type + SOS: % inh.: with SOS; for KRas wild type: % inh.: without SOS
Procedure: (§1) A Ras Superfamily Activity Assay (as disclosed in International Application No. PCT/US2018/038613, filed Jun. 20, 2018, which is incorporated by reference in its entirety) was used as a specific assay to evaluate compounds against the following for the following Ras Superfamily proteins: KRas wild type, KRas Q61H mutant, KRas G12C mutant, KRas G12D mutant, Rac-1, and Rho-A.
(§2) Buffer-I: • 25 mM Tris-HCl, pH 7.4 • 27 mM KCl • 137 mM NaCl • 1 mM MgCl2 • 1 mM DTT
(§3) Buffer-IL: • 50 mM Tris-HCl, pH 7.0 • 1 mM MgCl2 • 1 mM DTT
(§4) The small GTPases proteins: KRas wild type. KRas Q61H mutant, KRas G12C mutant, KRas G12D mutants, Rac-1, and Rho-A were expressed as His-tagged proteins. In addition, the Guanosine nucleotide Exchange Factor (GEF) Sos protein (residues 556-1049) was expressed as a His-tagged protein. In cells, the guanine nucleotide exchange factor Sos protein promotes activation of Ras proteins by stimulating an exchange of GDP for GTP. The inclusion of Sos to the Ras GTP binding domain inhibition assay may be considered as an alternative representation of physiological cellular conditions for evaluating the inhibitory activity of some of the tested small molecules.
(§5) For the assay, all purified small GTPases proteins were diluted in Buffer-I or Buffer-II to a final concentration of 10-30 μg/mL. 200 μL of each diluted protein was added to a nickel-coated 96-well plate and incubated overnight at 4° C. Then the protein solution was discarded and 200 μL of Buffer-I or Buffer-II was added to each well in the presence of 1% DMSO. Compounds to be tested were added to the protein-coated wells at final concentration of 20 μM, and incubated for 3 hours at room temperature with and without 10-30 μg/mL of Sos added to the final hour of the incubation. When performing IC50 measurements a serial dilution of all tested concentrations was added. Then Cy3-GTP or Cy5-GTP was added to each well to a final concentration of 100 nM. The labeled GTP was incubated for 45 minutes at room temperature. Following GTP incubation, wells were washed 3× in Buffer-I or Buffer-II and 200 μL of Buffer-I or Buffer-II was added to each well. Following washes, the amount of bound labeled-GTP was measured using a SpectraMax M3 (Molecular Devices).

[4] = system: Rho-A; assay: Ras GTP Binding Domain Inhibition Assay, Rho-A; conditions: at 20 μM; for Rho-A: % inh.: without SOS; for Rho-A + SOS: % inh.: with SOS
Procedure: as §1, §2, §3, §4, §5

[5] = system: KRas G12C mutant; assay: Ras GTP Binding Domain Inhibition Assay, KRas G12C mutant; conditions: at 20 μM; for KRas G12C mutant + SOS: % inh.: with SOS; for KRas G12C mutant: % inh.: without SOS
Procedure: as §1, §2, §3, §4, §5

[6] = system: KRas G12D mutant; assay: Ras GTP Binding Domain Inhibition Assay, KRas G12D mutant; conditions: at 20 μM; for KRas G12D mutant + SOS: % inh.: with SOS; for KRas G12D mutant: % inh.: without SOS
Procedure: as §1, §2, §3, §4, §5

Row | SMILES | KRas wild type + SOS: % inh. [3] | KRas wild type: % inh. [3] | Rho-A: % inh. [4] | KRas G12C mutant + SOS: % inh. [5] | KRas G12C mutant: % inh. [5] | KRas G12D mutant + SOS: % inh. ([6]; Table 7) | KRas G12D mutant + SOS: % inh. ([6]; Table 8) | KRas G12D mutant: % inh. ([6]; Table 7) | KRas G12D mutant: % inh. ([6]; Table 8) | Rho-A + SOS: % inh. [4] | inhibition [1] | inhibition [2]
1 | COCCNc1nc(-c2nccn2C)nc2sc(-c3ccccc3)c(-c3ccccc3)c12 [Compound 1, N-(2-Methoxyethyl)-2-(1-methyl-1H-imidazol-2-yl)-5,6-diphenylthieno[2,3-d]pyrimidin-4-amine] | A (A = 1-25% inhibition) | A (A = 1-25% inhibition) | C (C = 46-75% inhibition) | – | C (C = 46-75% inhibition) | A (A = 1-25% inhibition) | A (A = 1-25% inhibition) | D (D = 76-100% inhibition) | D (D = 76-100% inhibition) | – | – | –
2 | CO[C@@H]1CC[C@H](Nc2nc(-c3nccn3C)nc3sc(-c4ccn(C(C)C)n4)c(-c4ccccc4)c23)C1 [Compound 11, 6-(1-Isopropyl-1H-pyrazol-3-yl)-N-((1S,3R)-3-methoxycyclopentyl)-2-(1-methyl-1H-imidazol-2-yl)-5-phenylthieno[2,3-d]pyrimidin-4-amine] | D (D = 76-100% inhibition) | C (C = 46-75% inhibition) | B (B = 26-45% inhibition) | D (D = 76-100% inhibition) | C (C = 46-75% inhibition) | C (C = 46-75% inhibition) | C (C = 46-75% inhibition) | C (C = 46-75% inhibition) | C (C = 46-75% inhibition) | B (B = 26-45% inhibition) | – | –
3 | CO[C@H]1CNC[C@@H](Nc2nc(-c3nccn3C)nc3sc(-c4ccn(C(C)C)n4)cc23)C1 [Compound 28, 6-(1-Isopropyl-1H-pyrazol-3-yl)-N-((3S,5R)-5-methoxypiperidin-3-yl)-2-(1-methyl-1H-imidazol-2-yl)thieno[2,3-d]pyrimidin-4-amine] | – | – | – | – | – | – | – | – | – | – | 76 to 100% | 46 to 75%
4 | COCCNc1nc(-c2nccn2C)nc2sc(-c3ccccc3)c(-c3ccccc3Cl)c12 [Compound 4, 5-(2-Chlorophenyl)-N-(2-methoxyethyl)-2-(1-methyl-1H-imidazol-2-yl)-6-phenylthieno[2,3-d]pyrimidin-4-amine] | – | A (A = 1-25% inhibition) | B (B = 26-45% inhibition) | – | B (B = 26-45% inhibition) | – | – | B (B = 26-45% inhibition) | B (B = 26-45% inhibition) | – | – | –
5 | COCCN(C)c1nc(-c2nccn2C)nc2sc(-c3ccccc3)c(-c3ccccc3)c12 [Compound 2, N-(2-Methoxyethyl)-N-methyl-2-(1-methyl-1H-imidazol-2-yl)-5,6-diphenylthieno[2,3-d]pyrimidin-4-amine] | – | C (C = 46-75% inhibition) | B (B = 26-45% inhibition) | – | B (B = 26-45% inhibition) | – | – | C (C = 46-75% inhibition) | C (C = 46-75% inhibition) | – | – | –

Further lines, with some results ahead:

Row | KRas wild type + SOS: % inh. [3] | KRas wild type: % inh. [3] | Rho-A: % inh. [4] | KRas G12C mutant + SOS: % inh. [5] | KRas G12C mutant: % inh. [5] | KRas G12D mutant + SOS: % inh. ([6]; Table 7) | KRas G12D mutant + SOS: % inh. ([6]; Table 8) | KRas G12D mutant: % inh. ([6]; Table 7) | KRas G12D mutant: % inh. ([6]; Table 8) | Rho-A + SOS: % inh. [4] | SMILES | inhibition [1] | inhibition [2]
6 | D (D = 76-100% inhibition) | D (D = 76-100% inhibition) | D (D = 76-100% inhibition) | D (D = 76-100% inhibition) | C (C = 46-75% inhibition) | D (D = 76-100% inhibition) | D (D = 76-100% inhibition) | D (D = 76-100% inhibition) | D (D = 76-100% inhibition) | – | COCCOCCNc1nc(-c2nccn2C)nc2sc(-c3ccn(C(C)C)n3)c(C)c12 [Compound 21, 6-(1-Isopropyl-1H-pyrazol-3-yl)-N-(2-(2-methoxyethoxy)ethyl)-5-methyl-2-(1-methyl-1H-imidazol-2-yl)thieno[2,3-d]pyrimidin-4-amine] | 46 to 75% | 1 to 25%
7 | D (D = 76-100% inhibition) | D (D = 76-100% inhibition) | C (C = 46-75% inhibition) | D (D = 76-100% inhibition) | D (D = 76-100% inhibition) | D (D = 76-100% inhibition) | D (D = 76-100% inhibition) | D (D = 76-100% inhibition) | D (D = 76-100% inhibition) | – | COCCO[C@H]1CC[C@@H](Nc2nc(-c3nccn3C)nc3sc(-c4ccn(C(C)C)n4)c(C)c23)C1 (racemic) [Compound 20, rac-6-(1-Isopropyl-1H-pyrazol-3-yl)-N-((1R,3S)-3-(2-methoxyethoxy)cyclopentyl)-5-methyl-2-(1-methyl-1H-imidazol-2-yl)thieno[2,3-d]pyrimidin-4-amine] | 76 to 100% | 46 to 75%
8 | D (D = 76-100% inhibition) | B (B = 26-45% inhibition) | B (B = 26-45% inhibition) | D (D = 76-100% inhibition) | B (B = 26-45% inhibition) | D (D = 76-100% inhibition) | D (D = 76-100% inhibition) | A (A = 1-25% inhibition) | A (A = 1-25% inhibition) | – | COc1cccc(-c2sc3nc(-c4nccn4C)nc(N[C@@H]4CC[C@@H](OC)C4)c3c2C)c1F (racemic) [Compound 43, rac-6-(2-Fluoro-3-methoxyphenyl)-N-((1R,3R)-3-methoxycyclopentyl)-5-methyl-2-(1-methyl-1H-imidazol-2-yl)thieno[2,3-d]pyrimidin-4-amine] | 76 to 100% | 26 to 45%
9 | D (D = 76-100% inhibition) | D (D = 76-100% inhibition) | D (D = 76-100% inhibition) | D (D = 76-100% inhibition) | C (C = 46-75% inhibition) | C (C = 46-75% inhibition) | C (C = 46-75% inhibition) | C (C = 46-75% inhibition) | C (C = 46-75% inhibition) | D (D = 76-100% inhibition) | CO[C@H]1CC[C@@H](Nc2nc(-c3nccn3C)nc3sc(-c4ccn(C(C)C)n4)c(C)c23)C1 (racemic) [Compound 12, rac-6-(1-Isopropyl-1H-pyrazol-3-yl)-N-((1R,3S)-3-methoxycyclopentyl)-5-methyl-2-(1-methyl-1H-imidazol-2-yl)thieno[2,3-d]pyrimidin-4-amine] | – | –
10 | D (D = 76-100% inhibition) | D (D = 76-100% inhibition) | D (D = 76-100% inhibition) | D (D = 76-100% inhibition) | D (D = 76-100% inhibition) | D (D = 76-100% inhibition) | D (D = 76-100% inhibition) | C (C = 46-75% inhibition) | C (C = 46-75% inhibition) | D (D = 76-100% inhibition) | COCCn1ccnc1-c1nc(N[C@H]2C[C@@H](OC)C2)c2c(-c3ccccc3)c(-c3ccn(C)n3)sc2n1 [Compound 13, N-((1s,3s)-3-methoxycyclobutyl)-2-(1-(2-methoxyethyl)-1H-imidazol-2-yl)-6-(1-methyl-1H-pyrazol-3-yl)-5-phenylthieno[2,3-d]pyrimidin-4-amine] | – | –
